Experimental data: BindingDB's records for doi:10.7270/Q29S1T6B (n/a, 1997)

Target: T1, Type-1 angiotensin II receptor B (Rattus norvegicus, UniProt P29089)
T1 sequence (P29089 whole entry): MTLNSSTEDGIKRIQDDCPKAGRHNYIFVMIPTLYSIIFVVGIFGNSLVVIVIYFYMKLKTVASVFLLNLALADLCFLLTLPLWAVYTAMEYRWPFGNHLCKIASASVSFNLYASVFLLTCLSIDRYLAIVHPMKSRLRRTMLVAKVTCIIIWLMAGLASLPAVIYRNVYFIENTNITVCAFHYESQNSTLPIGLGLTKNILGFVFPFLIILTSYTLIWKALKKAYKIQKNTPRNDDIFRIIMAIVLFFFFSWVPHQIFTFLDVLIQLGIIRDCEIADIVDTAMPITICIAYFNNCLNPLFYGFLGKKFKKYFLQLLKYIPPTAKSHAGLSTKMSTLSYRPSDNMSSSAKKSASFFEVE
Assay: Inhibition of binding of [125I]All at the angiotensin II type 1 receptor (AT1 receptor) in rat liver membranes

Structure (SMILES) | Ki
CCc1nn(Cc2ccc(-c3ccccc3-c3nnn[nH]3)cc2)c(=NC(=O)c2ccccc2Cl)s1 [2-Chloro-N-[5-ethyl-3-[2'-(1H-tetrazol-5-yl)-biphenyl-4-ylmethyl]-3H-[1,3,4]thiadiazol-(2Z)-ylidene]-benzamide] | 3.4 nM
CCc1nn(Cc2ccc(-c3ccccc3-c3nnn[nH]3)cc2)c(=NC(=O)c2ccccc2C(=O)O)s1 [N-[5-Ethyl-3-[2'-(1H-tetrazol-5-yl)-biphenyl-4-ylmethyl]-3H-[1,3,4]thiadiazol-(2Z)-ylidene]-phthalamic acid] | 0.619 nM
CCc1nn(Cc2ccc(-c3ccccc3-c3nnn[nH]3)cc2)c(=NC(=O)c2ccccc2)s1 [N-[5-Ethyl-3-[2'-(1H-tetrazol-5-yl)-biphenyl-4-ylmethyl]-3H-[1,3,4]thiadiazol-(2Z)-ylidene]-benzamide] | 36 nM
